Literature values, collected in patent US20230414620A1, “TOPICAL RUXOLITINIB FOR TREATING LICHEN PLANUS” (Incyte Corporation, priority 2020, published 2023).

Tests used:
[1] = test system: steroid refractory graft versus host disease (GVHD); conditions: systemic JAK1, 2 inhibition
[2] = test system: refractory dermatomyositis (DM); conditions: case report

## N#CC[C@H](C1CCCC1)n1cc(-c2ncnc3[nH]ccc23)cn1 [ruxolitinib, (R)-3-(4-(7H-pyrrolo[2,3-d]pyrimidin-4-yl)-1H-pyrazol-1-yl)-3-cyclopentylpropanenitrile]
[1]
  efficacy in steroid refractory GVHD: highly effective
[2]
  response in refractory dermatomyositis: exceptional responder
